Data from the NIST ThermoML archive (doi:10.1021/je200851a).

Experiment: excess molar enthalpy (molar enthalpy of mixing); xn = mol fraction of the nth substance listed
Details: 298.15 K, 101 kPa, Liquid, Calvet calorimetry

CCCCCCCCC [nonane] + CCO
Details | excess molar enthalpy [kcal/mol]
x2 = 0.0507 | 0.087
x2 = 0.1378 | 0.132
x2 = 0.2453 | 0.156
x2 = 0.4164 | 0.168
x2 = 0.5022 | 0.162
x2 = 0.586 | 0.156
x2 = 0.6518 | 0.151
x2 = 0.6895 | 0.143
x2 = 0.749 | 0.13
x2 = 0.7877 | 0.12
x2 = 0.8433 | 0.1
x2 = 0.8715 | 0.0899
x2 = 0.9065 | 0.0715
x2 = 0.9296 | 0.0574
x2 = 0.9562 | 0.0387
